In patent US20090005417A1, “Substituted Indazolyl Sulfonamide and 2,3-Dihydro-Indolyl Sulfonamide Compounds, their Preparation and Use in Medicaments” (LABORATORIOS DEL DR. ESTEVE S.A., priority 2004, published 2009):

target: T1, 5HT6-human recombinant receptor (Homo sapiens, UniProt P50406); assay: Binding to serotonin receptor 5-HT6 ([3H]-LSD radioligand); conditions: membranes of HEK-293 cells expressing the receptor; [3H]-LSD 2.7 nM; 60 min at 37° C.
T1 construct: purchased Receptor Biology; host or cells: HEK-293 cell membranes
Procedure: Cell membranes of HEK-293 cells expressing the 5HT6-human recombinant receptor were supplied by Receptor Biology. In said membranes the receptor concentration is 2.18 pmol/mg protein and the protein concentration is 9.17 mg/ml. The experimental protocol follows the method of B. L. Roth et al. [B. L. Roth, S. C. Craigo, M. S. Choudhary, A. Uluer, F. J. Monsma, Y. Shen, H. Y. Meltzer, D. R. Sibley: Binding of Typical and Atypical Antipsychotic Agents to 5-Hydroxytryptamine-6 and Hydroxytryptamine-7 Receptors. The Journal of Pharmacology and Experimental Therapeutics, 1994, 268, 1403] with the following slight changes. The respective part of the literature description is hereby incorporated by reference and forms part of the disclosure.
The commercial membrane is diluted (1:40 dilution) with the binding buffer: 50 mM Tris-HCl, 10 mM MgCl2, 0.5 mM EDTA (pH 7.4). The radioligand used is [^3H]-LSD at a concentration of 2.7 nM with a final volume of 200 μl. Incubation is initiated by adding 100 μl of membrane suspension, (≈22.9 μg membrane protein), and is prolonged for 60 minutes at a temperature of 37° C. The incubation is ended by fast filtration in a Brandel Cell Harvester through fiber glass filters made by Schleicher & Schuell GF 3362 pretreated with a solution of polyethylenimine at 0.5%. The filters are washed three times with three milliliters of buffer Tris-HCl 50 mM pH 7.4. The filters are transferred to flasks and 5 ml of Ecoscint H liquid scintillation cocktail are added to each flask. The flasks are allowed to reach equilibrium for several hours before counting with a Wallac Winspectral 1414 scintillation counter. Non-specific binding is determined in the presence of 100 μM of serotonin. Tests were made in triplicate. The inhibition constants (Ki, nM) were calculated by non-linear regression analysis using the program EBDA/LIGAND described in Munson and Rodbard, Analytical Biochemistry, 1980, 107, 220, the respective part of which is hereby incorporated by reference and forms part of the disclosure.
The binding of the substituted indazolyl sulfonamide or 2,3-dihydro-indolyl sulfonamide compounds to the 5-HT6 receptor was determined as described above.

T1 sequence (P50406 whole entry): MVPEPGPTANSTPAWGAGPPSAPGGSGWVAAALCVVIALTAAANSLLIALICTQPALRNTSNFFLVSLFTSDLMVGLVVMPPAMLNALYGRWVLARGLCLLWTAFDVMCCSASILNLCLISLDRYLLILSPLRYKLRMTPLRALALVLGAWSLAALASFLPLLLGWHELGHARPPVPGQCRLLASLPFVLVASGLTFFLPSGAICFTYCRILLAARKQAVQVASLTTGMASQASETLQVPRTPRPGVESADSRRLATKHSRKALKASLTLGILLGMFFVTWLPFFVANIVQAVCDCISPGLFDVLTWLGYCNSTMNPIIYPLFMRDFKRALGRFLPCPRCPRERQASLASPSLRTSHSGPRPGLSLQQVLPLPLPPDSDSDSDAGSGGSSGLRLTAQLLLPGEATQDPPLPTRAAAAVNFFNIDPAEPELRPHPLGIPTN

| Ki [nM] | Structure (SMILES) |
| --- | --- |
| 72.6 | CN(C)CCn1ncc2ccc(NS(=O)(=O)c3ccc4ccccc4c3)cc21 [Example 1, N-(1-(2-(dimethylamino)ethyl)-1H-indazol-6-yl)napthalene-2-sulfonamide] |
| 16.4 | Cc1c(S(=O)(=O)Nc2ccc3cnn(CCN(C)C)c3c2)sc2ccc(Cl)cc12 [Example 2, 5-chloro-N-(1-(2-(dimethylamino)ethyl)-1H-indazol-6-yl)-3-methylbenzo[b]thiophene-2-sulfonamide] |
| 121 | Cc1c(S(=O)(=O)Nc2ccc3[nH]nc(C4CCN(C)CC4)c3c2)sc2ccc(Cl)cc12 [Example 4, 5-chloro-3-methyl-benzo[b]thiophene-2-sulfonic acid [3-(1-methyl-piperidin-4-yl)-1H-indazol-5-yl]-amide] |

| Structure (SMILES) | Ki [nM] |
| --- | --- |
| CN(C)CCN1CCc2ccc(NS(=O)(=O)c3c(Cl)nc4sccn34)cc21 [Example 9] | 15.8 |
